The source of these data is patent EP4190319A1, “PHARMACEUTICAL COMPOSITION COMPRISING MEMANTINE AND CITICOLINE” (Novamedica Limited Liability Company, priority 2020, dated 2022).

The subject of this experiment is rats. Kind of experiment: Morris Water Maze test of long-term memory in the model of global transient cerebral ischemia with ligation of common carotid arteries. It is filed as in vivo. The procedure:
The comparative study of specific pharmacological activity of the pharmaceutical composition proposed in this invention was conducted by comparison with the citicoline mono-preparation on the model of ischemic stroke in rats. For that purpose, a model of global transient cerebral ischemia with ligation of common carotid arteries was selected on the basis of the Handbook on Conducting Pre-Clinical Studies of Therapeutical Agents, ed. by A.N. Mironov. Long-term memory was evaluated with the use of the Morris Water Maze test (Morris R., "J Neurosci Methods", 1984, Vol. 11, No 1. - P. 47-60 [10]). Table. Effect of the preparations under study on long-term memory in rats in the Morris Water Maze test.

With `CC12CC3CC(C)(C1)CC(N)(C3)C2` [Memantine, 3,5-dimethyladamantan-1-amine], the “Latent period of finding platform” value stood at 27.1 ± 7.8 s (mg/kg (citicoline + memantine) 0+2, ischemic stroke model in rats); 14.6 ± 5.2 s (mg/kg (citicoline + memantine) 0+10, ischemic stroke model in rats); 9.2 ± 1.2 s (mg/kg (citicoline + memantine) 0+20, ischemic stroke model in rats).

For `C[N+](C)(C)CCOP(=O)(O)OP(=O)([O-])OC[C@H]1O[C@@H](n2ccc(N)nc2=O)[C@H](O)[C@@H]1O` [Citicoline, 5'-O-[hydroxy({hydroxy[2-(trimethylammonio)ethoxy]phosphoryl}oxy)phosphoryl]cytidine], the “Latent period of finding platform” value (mg/kg (citicoline + memantine) 100+0, ischemic stroke model in rats) stood at 20.4 ± 7.6 s; the “Latent period of finding platform” value (mg/kg (citicoline + memantine) 500+0, ischemic stroke model in rats) amounted to 13.6 ± 3.5 s; the “Latent period of finding platform” value (mg/kg (citicoline + memantine) 1,000+0, ischemic stroke model in rats) was determined as 10.4 ± 3.5 s.
